# Tests used:
# [1] = system: MIA PaCa-2 (KRAS G12C) cells; test: Cellular pERK HTRF assay (KRAS_G12C pERK assay); assay type: cell-based; conditions: Homo sapiens, cells incubated with compound 4 hours, read-out: G12C_pERK IC50
# Method: MIA PaCa-2 (KRAS G12C; ATCC® CRL-1420), A427 (KRAS G12D; ATCC® HTB53), HPAF-II (KRAS G12D; ATCC® CRL-1997) and NCI-H838 (KRAS WT; ATCC® CRL-5844) cells are purchased from ATCC and maintained in RPMI 1640 media supplemented with 10% FBS (Gibco/Life Technologies). The cells are plated at 5000 cells per well (8 uL) into Greiner 384-well low volume, flat-bottom, tissue culture treated white plates and incubated overnight at 37° C., 5% CO2. The next morning, test compound stock solutions are diluted in media at 3× the final concentration, and 4 uL are added to the cells. The plate is mixed by gentle rotation for 30 seconds (250 rpm) at room temperature. The cells are incubated with the KRAS G12C and G12D compounds for 4 hours or 2 hours respectively at 37° C., 5% CO2.
# 4 uL of 4× lysis buffer with blocking reagent (1:25) (Cisbio) are added to each well and plates are rotated gently (300 rpm) for 30 minutes at room temperature. 4 uL per well of Cisbio anti Phospho-ERK 1/2 d2 is mixed with anti Phospho-ERK 1/2 Cryptate (1:1) are added to each well, mixed by rotation and incubated overnight in the dark at room temperature. Plates are read on the Pherastar plate reader at 665 nm and 620 nm wavelengths. IC50 determination is performed by fitting the curve of inhibitor percent inhibition versus the log of the inhibitor concentration using the GraphPad Prism 7 software.
# KRAS G12C = KRAS G12C (Homo sapiens, UniProt P01116, G12C); test: GDP-GTP exchange assay (bodipy-GDP/GppNHp, SOS1); assay type: biochemical; conditions: bodipy-loaded KRAS G12C 2.5 nM, SOS1 150 nM, 2 hours pre-incubation with inhibitor; read-out: G12C_exchange IC50
# Method: The inhibitor potency of the exemplified compounds was determined in a fluorescence based guanine nucleotide exchange assay, which measures the exchange of bodipy-GDP (fluorescently labeled GDP) for GppNHp (Non-hydrolyzable GTP analog) to generate the active state of KRAS in the presence of SOS1 (guanine nucleotide exchange factor). Inhibitors were serially diluted in DMSO and a volume of 0.1 μL was transferred to the wells of a black low volume 384-well plate. 5 μL/well volume of bodipy-loaded KRAS G12C diluted to 5 nM in assay buffer (25 mM Hepes pH 7.5, 50 mM NaCl, 10 mM MgCl2 and 0.01% Brij-35) was added to the plate and pre-incubated with inhibitor for 2 hours at ambient temperature. Appropriate controls (enzyme with no inhibitor or with a G12C inhibitor (AMG-510)) were included on the plate. The exchange was initiated by the addition of a 5 μL/well volume containing 1 mM GppNHp and 300 nM SOS1 in assay buffer. The 10 μL/well reaction concentration of the bodipy-loaded KRAS G12C, GppNHp, and SOS1 were 2.5 nM, 500 uM, and 150 nM, respectively. The reaction plates were incubated at ambient temperature for 2 hours, a time estimated for complete GDP-GTP exchange in the absence of inhibitor. For the KRAS G12D and G12V mutants, similar guanine nucleotide exchange assays were used with 2.5 nM as final concentration for the bodipy loaded KRAS proteins and with 4 hours and 3 hours incubation after adding GppNHp-SOS1 mixture for G12D and G12V respectively. A cyclic peptide described to selectively bind G12D mutant (Sakamoto et al., BBRC 484.3 (2017), 605-611) or internal compounds with confirmed binding were used as positive controls in the assay plates. Fluorescence intensities were measured on a PheraStar plate reader instrument (BMG Labtech) with excitation at 485 nm and emission at 520 nm.
# Either GraphPad prism or XLfit was used to analyze the data. The IC50 values were derived by fitting the data to a four parameter logistic equation producing a sigmoidal dose-response curve with a variable Hill coefficient. Prism equation: Y=Bottom+(Top−Bottom)/(1+10^((Log IC50−X)*Hill slope)); XLfit equation: Y=(A+((B−A)/(1+((X/C)^D)))) where X is the logarithm of inhibitor concentration and Y is the response.
# Chain of KRAS G12C (P01116 1-188 isoform P01116-2 G12C): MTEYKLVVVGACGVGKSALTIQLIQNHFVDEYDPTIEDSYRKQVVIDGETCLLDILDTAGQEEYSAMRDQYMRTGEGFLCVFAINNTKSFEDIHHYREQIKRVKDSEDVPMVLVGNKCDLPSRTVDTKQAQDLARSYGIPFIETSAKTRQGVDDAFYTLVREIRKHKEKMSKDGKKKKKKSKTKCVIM
smiles,measurement,setting,value
"C=Cc1ncc2n1CCN(c1nc(OCCCN3CCOCC3)nc3c1CCN(c1cccc4cccc(Cl)c14)C3)C2 [Example 1, 4-(3-((7-(8-Chloronaphthalen-1-yl)-4-(3-vinyl-5,6-dihydroimidazo[1,5-a]pyrazin-7(8H)-yl)-5,6,7,8-tetrahydropyrido[3,4-d]pyrimidin-2-yl)oxy)propyl)morpholine]",IC50,[1],1000 to 5000 nM
same,IC50,KRAS G12C,100 to 1000 nM
"C=Cc1ncc2n1CCN(c1nc(OCCCN3CCOCC3)nc3c1CCN(c1cccc4ccccc14)C3)C2 [Example 2, 4-(3-((7-(Naphthalen-1-yl)-4-(3-vinyl-5,6-dihydroimidazo[1,5-a]pyrazin-7(8H)-yl)-5,6,7,8-tetrahydropyrido[3,4-d]pyrimidin-2-yl)oxy)propyl)morpholine]",IC50,[1],1000 to 5000 nM
same,IC50,KRAS G12C,≤ 100 nM
"C=Cc1ncc2n1CCN(c1nc(OC[C@@H]3CCCN3C)nc3c1CCN(c1cccc4ccccc14)C3)C2 [Example 3, (S)-2-((1-Methylpyrrolidin-2-yl)methoxy)-7-(naphthalen-1-yl)-4-(3-vinyl-5,6-dihydroimidazo[1,5-a]pyrazin-7(8H)-yl)-5,6,7,8-tetrahydropyrido[3,4-d]pyrimidine]",IC50,[1],1000 to 5000 nM
same,IC50,KRAS G12C,≤ 100 nM
"C=Cc1ncc2n1CCN(c1nc(OC[C@@H]3CCCN3C)nc3c1CCN(c1cccc4cccc(Cl)c14)C3)C2 [Example 4, (S)-7-(8-Chloronaphthalen-1-yl)-2-((1-methylpyrrolidin-2-yl)methoxy)-4-(3-vinyl-5,6-dihydroimidazo[1,5-a]pyrazin-7(8H)-yl)-5,6,7,8-tetrahydropyrido[3,4-d]pyrimidine]",IC50,[1],1000 to 5000 nM
same,IC50,KRAS G12C,100 to 1000 nM
"C=Cc1ncc2n1CCN(c1nc(OCCCN3CCCCC3)nc3c1CCN(c1cccc4cccc(Cl)c14)C3)C2 [Example 5, 7-(8-Chloronaphthalen-1-yl)-2-(3-(piperidin-1-yl)propoxy)-4-(3-vinyl-5,6-dihydroimidazo[1,5-a]pyrazin-7(8H)-yl)-5,6,7,8-tetrahydropyrido[3,4-d]pyrimidine]",IC50,[1],1000 to 5000 nM
same,IC50,KRAS G12C,100 to 1000 nM
"C=Cc1ncc2n1CCN(c1nc(OCC3CCCN(C)C3)nc3c1CCN(c1cccc4cccc(Cl)c14)C3)C2 (centres unmarked) [Example 6, 7-(8-Chloronaphthalen-1-yl)-2-((1-methylpiperidin-3-yl)methoxy)-4-(3-vinyl-5,6-dihydroimidazo[1,5-a]pyrazin-7(8H)-yl)-5,6,7,8-tetrahydropyrido[3,4-d]pyrimidine]",IC50,[1],1000 to 5000 nM
same,IC50,KRAS G12C,100 to 1000 nM
"C=Cc1ncc2n1CCN(c1nc(OCC3CCCCN3C)nc3c1CCN(c1cccc4cccc(Cl)c14)C3)C2 (centres unmarked) [Example 7, 7-(8-Chloronaphthalen-1-yl)-2-((1-methylpiperidin-2-yl)methoxy)-4-(3-vinyl-5,6-dihydroimidazo[1,5-a]pyrazin-7(8H)-yl)-5,6,7,8-tetrahydropyrido[3,4-d]pyrimidine]",IC50,KRAS G12C,100 to 1000 nM
"C=Cc1ncc2n1CCN(c1nc(OCCC3CCCN3C)nc3c1CCN(c1cccc4cccc(Cl)c14)C3)C2 (centres unmarked) [Example 8, 7-(8-Chloronaphthalen-1-yl)-2-(2-(1-methylpyrrolidin-2-yl)ethoxy)-4-(3-vinyl-5,6-dihydroimidazo[1,5-a]pyrazin-7(8H)-yl)-5,6,7,8-tetrahydropyrido[3,4-d]pyrimidine]",IC50,KRAS G12C,100 to 1000 nM
"C=Cc1ncc2n1CCN(c1nc(OC[C@@H]3CCCN3C)nc3c1CCN(c1cc(O)cc4ccccc14)C3)C2 [Example 9, (S)-4-(2-((1-Methylpyrrolidin-2-yl)methoxy)-4-(3-vinyl-5,6-dihydroimidazo[1,5-a]pyrazin-7(8H)-yl)-5,8-dihydropyrido[3,4-d]pyrimidin-7(6H)-yl)naphthalen-2-ol]",IC50,[1],1000 to 5000 nM
same,IC50,KRAS G12C,100 to 1000 nM
"C=Cc1ncc2n1CCN(c1nc(OC[C@@H]3CCCN3Cc3ccccc3)nc3c1CCN(c1cccc4cccc(Cl)c14)C3)C2 [Example 10, (S)-2-((1-Benzylpyrrolidin-2-yl)methoxy)-7-(8-chloronaphthalen-1-yl)-4-(3-vinyl-5,6-dihydroimidazo[1,5-a]pyrazin-7(8H)-yl)-5,6,7,8-tetrahydropyrido[3,4-d]pyrimidine]",IC50,KRAS G12C,100 to 1000 nM
"C=Cc1ncc2n1CCN(c1nc(OC[C@H]3CCCN3C)nc3c1CCN(c1cc(O)cc4ccccc14)C3)C2 [Example 11, (R)-4-(2-((1-Methylpyrrolidin-2-yl)methoxy)-4-(3-vinyl-5,6-dihydroimidazo[1,5-a]pyrazin-7(8H)-yl)-5,8-dihydropyrido[3,4-d]pyrimidin-7(6H)-yl)naphthalen-2-ol]",IC50,[1],1000 to 5000 nM
same,IC50,KRAS G12C,100 to 1000 nM
"C=Cc1ncc2n1CCN(c1nc(OCC3(C#N)CCCC3)nc3c1CCN(c1cccc4cccc(Cl)c14)C3)C2 [Example 12, 1-(((7-(8-Chloronaphthalen-1-yl)-4-(3-vinyl-5,6-dihydroimidazo[1,5-a]pyrazin-7(8H)-yl)-5,6,7,8-tetrahydropyrido[3,4-d]pyrimidin-2-yl)oxy)methyl)cyclopentane-1-carbonitrile]",IC50,KRAS G12C,1000 to 5000 nM
"C=Cc1ncc2n1CCN(c1nc(OCCCN3CCOCC3)nc3c1CCN(c1cc(O)cc4ccccc14)C3)C2 [Example 13, 4-(2-(3-Morpholinopropoxy)-4-(3-vinyl-5,6-dihydroimidazo[1,5-a]pyrazin-7(8H)-yl)-5,8-dihydropyrido[3,4-d]pyrimidin-7(6H)-yl)naphthalen-2-ol]",IC50,KRAS G12C,1000 to 5000 nM
"C=Cc1cnc2n1CCN(c1nc(OC[C@@H]3CCCN3C)nc3c1CCN(c1cccc4cccc(Cl)c14)C3)C2 [Example 14, (S)-7-(8-Chloronaphthalen-1-yl)-2-((1-methylpyrrolidin-2-yl)methoxy)-4-(3-vinyl-5,6-dihydroimidazo[1,2-a]pyrazin-7(8H)-yl)-5,6,7,8-tetrahydropyrido[3,4-d]pyrimidine]",IC50,KRAS G12C,1000 to 5000 nM
"C=Cc1cnc2n1CCN(c1nc(OCCCN3CCOCC3)nc3c1CCN(c1cccc4cccc(Cl)c14)C3)C2 [Example 15, 4-(3-((7-(8-Chloronaphthalen-1-yl)-4-(3-vinyl-5,6-dihydroimidazo[1,2-a]pyrazin-7(8H)-yl)-5,6,7,8-tetrahydropyrido[3,4-d]pyrimidin-2-yl)oxy)propyl)morpholine]",IC50,KRAS G12C,1000 to 5000 nM

# — patent US11739102B2, “Fused pyrimidine compounds as KRAS inhibitors” (Incyte Corporation, priority 2020, dated 2023)
